Columns and labels:
[1] = system: Trichomonas vaginalis; test: Growth inhibition of clinically isolated Trichomonas vaginalis in Trichomonas medium F (Neutral Red colour, inverted microscope); type: cell-based; conditions: for Color / Result of microscopic observation: 72 hours at 37° C.; for Result of microscopic observation: inverted microscope
Experimental: The effect on Trichomonas vaginalis was investigated for luliconazole of the compound represented by the general formula (1). That is, 5×10^6 cells of clinically isolated Trichomonas vaginalis were seeded in Trichomonas medium F (6.5 mL, contained in tube) produced by Fujiyakuhin Co., Ltd. containing Neutral Red as a marker, and the preculture was carried out for 72 hours (preculture). It was confirmed that Trichomonas grew, the acid was actively produced, and Neutral Red was changed to be yellow. After that, the preculture was added to Trichomonas medium F by every 100 μL in order to carry out the main culture, to which 0.5 mL of a test solution was added. In this situation, the number of protozoas in the solution of preculture was 1.5×10^5 cells/mL. Three series of test solutions were prepared, in which the luliconazole concentrations were 200 μM (final concentration: 35.2 μM), 100 μM (final concentration: 17.6 μM), and 50 μM (final concentration: 8.8 μM), as luliconazole dissolved in 10% methanol saline solution. 0.5 mL of vehicle was added as a control. As for the vehicle, 10% methanol saline solution (final concentration: 0 μM) was used. Stirring was sufficiently performed after the addition, followed by culturing at 37° C. for 72 hours. After the completion of the cultivation, the color was discriminated, and the state of protozoas was observed by using an inverted microscope. […] The same or equivalent investigation as that of Example 1 was performed while changing luliconazole to lanoconazole.

[2] = system: Chlamydia trachomatis (D/UW3/Cx); test: Anti-intracellular parasite action, Chlamydia inclusion bodies in HeLa 229 host cells (fluorescence staining); type: cell-based
Experimental: The anti-intracellular parasite action was investigated by using Chlamydia trachomatis (D/UW3/Cx). That is, Chlamydia trachomatis was cultured in the presence of ×2 dilution series of 8 to 64 μg/ml of luliconazole by using HeLa 229 cells as the host. MEM added with 8% thermally inactivated FBS, to which 1 μg/ml of cyclohexamide was added, was used as the medium, and the culture was performed for 72 hours in 5% carbon dioxide gas at 37° C. After the culture, inclusion bodies were subjected to the fluorescent staining to be apple green with Chlamydia FA reagent “Seiken” (produced by DENKA SEIKEN Co., Ltd.), and the observation was performed by using a fluorescence microscope.

[3] = final concentration 8.8 μM, Neutral Red marker
[4] = final concentration 17.6 μM, Neutral Red marker
[5] = final concentration 35.2 μM, Neutral Red marker (yellow = acid production by growing Trichomonas)

SMILES	Color [1, 3]	Result of microscopic observation ([1]; final concentration 8.8 μM)	Color [1, 4]	Result of microscopic observation ([1]; final concentration 17.6 μM)	Color [1, 5]	Result of microscopic observation ([1]; final concentration 35.2 μM)	growth of Trichomonas ([1]; at 8.8 μM)	observation result of Chlamydia inclusion bodies ([2]; treatment with 8 μg/mL, FIG. 1 panel (A))	observation result of Chlamydia inclusion bodies ([2]; treatment with 16 μg/mL, FIG. 1 panel (B))	observation result of Chlamydia inclusion bodies ([2]; treatment with 32 μg/mL, FIG. 1 panel (C))
N#C/C(=C1/SCC(c2ccccc2Cl)S1)n1ccnc1 (stereo not shown) [lanoconazole, 4-(2-chlorophenyl)-1,3-dithiolane-2-ylidene-1-imidazolyl acetonitrile]	yellow	large number of protozoas were observed	red	protozoas were observed slightly	red	no protozoa was observed				
N#C/C(=C1/SC[C@@H](c2ccc(Cl)cc2Cl)S1)n1ccnc1 [luliconazole, (R)-(−)-(E)-[4-(2,4-dichlorophenyl)-1,3-dithiolane-2-ylidene]-1-imidazolyl acetonitrile]	yellow	protozoas were observed slightly	red	no protozoa was observed	red	no protozoa was observed	inhibits the growth	dot-shaped Chlamydia inclusion bodies stained apple green were observed	dot-shaped Chlamydia inclusion bodies stained apple green were observed	No inclusion body was found

Reference: US20150366845A1, “PHARMACEUTICAL COMPOSITION FOR DISEASES CAUSED BY PATHOGENIC MICROORGANISMS SUCH AS ASPERGILLUS” (POLA PHARMA INC., priority 2013, published 2015)
